Test results published in US5476966A, “Method for depletion of glutathione” (Cornell Research Foundation, Inc., priority 1995, dated 1995).

What was measured:
[1] = test system: resistant tumors; conditions: continuous intraperitoneal infusion of BSO; cited from earlier work
[2] = test system: glutathione; assay: Tissue glutathione after oral administration of sulfoximines (Table 5); assay type: in vivo, mouse; conditions: for % Decrease in glutathione / Glutathione level: 2 mmol/Kg oral
Method: Male mice (Swiss Webster) were fasted overnight (about 16 hr.) L-buthionine-SR-sulfoximine (BSO, S-n-butyl homocysteine-SR-sulfoximine), L-S-cyclohexylmethyl homocysteine-SR-sulfoximine (CHMSO); L-S-2-ethylbutylhomocysteine-SR-sulfoximine (2 EtBSO, L-S-2-ethylbutyl homocysteine-SR-sulfoximine, or saline (0.9% NaCl) were administered to mice at 2 mmol/Kg by intubation (100 mM; pH about 1 with HCl (200 mM). At the times indicated, plasma and tissues were obtained and assayed for glutathione (GSH+1/2 GSSG) as described by Anderson, Methods in Enzymology, 1985, 113:548-555. (See Table 4 and 5.)

CCCCS(=N)(=O)CCC(N)C(=O)O [BSO, L-S-butyl homocysteine-SR-sulfoximine]
life span [1]: increase in the life span | sensitization of tumors to phenylalanine mustard [1]: sensitization of the tumors to the effects of phenylalanine mustard was achieved | decrease in brain glutathione levels ([2]; 2 mmol/kg, 12 hours, experimental error about 5%): ~20% | decrease in glutathione levels (cardio-toxicity) ([2]; 2 hours, 2 mmol/kg, mice): 22% | % Decrease in glutathione ([2]; brain, 2 hr): 0% | Glutathione level ([2]; brain, 2 hr): 2.17 µmol/g | % Decrease in glutathione ([2]; brain, 4 hr): 10% | Glutathione level ([2]; brain, 4 hr): 1.95 µmol/g | % Decrease in glutathione ([2]; brain, 8 hr): 12% | Glutathione level ([2]; brain, 8 hr): 2.04 µmol/g | % Decrease in glutathione ([2]; brain, 12 hr): 18% | Glutathione level ([2]; brain, 12 hr): 1.64 µmol/g | % Decrease in glutathione ([2]; heart, 2 hr): 22% | Glutathione level ([2]; heart, 2 hr): 0.86 µmol/g | % Decrease in glutathione ([2]; heart, 4 hr): 17% | Glutathione level ([2]; heart, 4 hr): 0.91 µmol/g | % Decrease in glutathione ([2]; heart, 8 hr): 36% | Glutathione level ([2]; heart, 8 hr): 0.65 µmol/g | % Decrease in glutathione ([2]; heart, 12 hr): 49% | Glutathione level ([2]; heart, 12 hr): 0.58 µmol/g | % Decrease in glutathione ([2]; kidney, 2 hr): 71% | Glutathione level ([2]; kidney, 2 hr): 0.81 µmol/g | % Decrease in glutathione ([2]; kidney, 4 hr): 80% | Glutathione level ([2]; kidney, 4 hr): 0.57 µmol/g | % Decrease in glutathione ([2]; kidney, 8 hr): 86% | Glutathione level ([2]; kidney, 8 hr): 0.44 µmol/g | % Decrease in glutathione ([2]; kidney, 12 hr): 91% | Glutathione level ([2]; kidney, 12 hr): 0.30 µmol/g | % Decrease in glutathione ([2]; liver, 2 hr): 71% | Glutathione level ([2]; liver, 2 hr): 1.50 µmol/g | % Decrease in glutathione ([2]; liver, 4 hr): 87% | Glutathione level ([2]; liver, 4 hr): 0.70 µmol/g | % Decrease in glutathione ([2]; liver, 8 hr): 89% | Glutathione level ([2]; liver, 8 hr): 0.60 µmol/g | % Decrease in glutathione ([2]; liver, 12 hr): 85% | Glutathione level ([2]; liver, 12 hr): 0.73 µmol/g | % Decrease in glutathione ([2]; plasma, 2 hr): 56% | Glutathione level ([2]; plasma, 2 hr): 9.8 µM | % Decrease in glutathione ([2]; plasma, 4 hr): 68% | Glutathione level ([2]; plasma, 4 hr): 7.1 µM | % Decrease in glutathione ([2]; plasma, 8 hr): 78% | Glutathione level ([2]; plasma, 8 hr): 5.1 µM | % Decrease in glutathione ([2]; plasma, 12 hr): 77% | Glutathione level ([2]; plasma, 12 hr): 5.5 µM
